Measurements published in publication PMC2010749, “Cytotoxic and clastogenic effects of soluble and insoluble compounds containing hexavalent and trivalent chromium” (British Journal of Cancer, 1981).
Where two headings read alike, the source gives them in different places.

Key:
[1] = test system: BHK 21 Syrian hamster fibroblast line; test: DNA, RNA and protein syntheses in BHK cells, Cr compounds added directly to medium; format: cell-based; settings: 48 h in MEM; 0.5/0.15/0.05 mg/ml (one value for all three)
Procedure: (§1) Cell growth and labelling.-The reduction in cell growth, based on the nucleic acid content (DNA + RNA) of treated cultures, and the inhibition of DNA, RNA and protein syn- thesis, based on the incorporation of labelled precursors, were determined, to evaluate the cytotoxic effects of Cr compounds in BHK cell cultures. […] Three to four thousand cells were then examined for each dose level and each time interval, and the mitotic index (the ratio of all mitoses to the total number of cells) and the frequencies of each mitotic phase (the ratios of cells in each phase to total mitoses) were determined. […] Chromium compounds and cell treatments.- The tested compounds of Cr(VI) and Cr(III) and their physico-chemical properties are listed in Table I. In many experiments in which most of them were highly insoluble or only partially soluble (see Tables I, IV, V), Cr compounds were directly suspended in the growth medium used for treatments. […] The cytotoxic and clastogenic effects were usually deter- mined just at the end of Cr treatments, but sometimes the treated cells were washed with HBSS and incubated with normal growth medium, so that the effects of Cr were deter- mined at different times after the end of treatment (see Fig. 3 and Table VII).

[2] = Solubility of chromium compounds (Table I)
Procedure: (§2) Cell growth and labelling.-The reduction in cell growth, based on the nucleic acid content (DNA + RNA) of treated cultures, and the inhibition of DNA, RNA and protein syn- thesis, based on the incorporation of labelled precursors, were determined, to evaluate the cytotoxic effects of Cr compounds in BHK cell cultures. […] Three to four thousand cells were then examined for each dose level and each time interval, and the mitotic index (the ratio of all mitoses to the total number of cells) and the frequencies of each mitotic phase (the ratios of cells in each phase to total mitoses) were determined. […] Chromium compounds and cell treatments.- The tested compounds of Cr(VI) and Cr(III) and their physico-chemical properties are listed in Table I. In many experiments in which most of them were highly insoluble or only partially soluble (see Tables I, IV, V), Cr compounds were directly suspended in the growth medium used for treatments. In the experiments on the induction of chromosome aberrations and SCE in CHO cells, almost complete solubilization was obtained in N HCI for Cr(III) compounds and 0-5N NaOH for Cr(VI) compounds, after which they were diluted with MEM to the final concentrations specified in Table IX. […] The cytotoxic and clastogenic effects were usually deter- mined just at the end of Cr treatments, but sometimes the treated cells were washed with HBSS and incubated with normal growth medium, so that the effects of Cr were deter- mined at different times after the end of treatment (see Fig. 3 and Table VII).

[3] = test system: BHK 21 Syrian hamster fibroblast line; test: DNA, RNA and protein syntheses in BHK monolayers exposed to filtered medium preincubated with Cr compounds; format: cell-based; settings: cells exposed 24 h;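 further: DNA, RNA and protein synthesis in BHK cultures assessed by incorporation of labelled precursors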
Procedure: as §1

[4] = test system: HEp-2 human epithelial-like line; settings: 2 h exposure to medium preincubated 2 days with 0.5 mg/ml in presence of BHK cells
Procedure: as §1

[5] = test system: CHO Chinese hamster fibroblast line; settings: 0.1 µg/ml water-soluble Cr(VI) (0.3 µg/ml of salt)
Procedure: Cell growth and labelling.-The reduction in cell growth, based on the nucleic acid content (DNA + RNA) of treated cultures, and the inhibition of DNA, RNA and protein syn- thesis, based on the incorporation of labelled precursors, were determined, to evaluate the cytotoxic effects of Cr compounds in BHK cell cultures. […] Three to four thousand cells were then examined for each dose level and each time interval, and the mitotic index (the ratio of all mitoses to the total number of cells) and the frequencies of each mitotic phase (the ratios of cells in each phase to total mitoses) were determined. […] Chromium compounds and cell treatments.- The tested compounds of Cr(VI) and Cr(III) and their physico-chemical properties are listed in Table I. In many experiments in which most of them were highly insoluble or only partially soluble (see Tables I, IV, V), Cr compounds were directly suspended in the growth medium used for treatments. In the experiments on the induction of chromosome aberrations and SCE in CHO cells, almost complete solubilization was obtained in N HCI for Cr(III) compounds and 0-5N NaOH for Cr(VI) compounds, after which they were diluted with MEM to the final concentrations specified in Table IX. […]

[6] = test system: BHK 21 Syrian hamster fibroblast line; test: Cell growth of BHK cultures (DNA + RNA content), Cr compounds added directly to medium; format: cell-based; settings: 48 h in MEM; 0.5/0.15/0.05 mg/ml (one value for all three)
Procedure: as §2

[7] = test system: BHK 21 Syrian hamster fibroblast line; settings: range in 4 experiments
Procedure: as §1

[8] = test system: CHO Chinese hamster fibroblast line; test: Cell growth of CHO cultures (DNA + RNA content); format: cell-based; settings: 32 h in MEM; 0.3 µg/ml
Procedure: as §1

[9] = preincubated 48 h with 0.05 mg/ml
[10] = preincubated 48 h with 0.15 mg/ml
[11] = preincubated 48 h with 0.5 mg/ml

**Q.** With `[K+].[K+].[O]=[Cr](=[O])([O-])[O][Cr](=[O])(=[O])[O-]` [Potassium dichromate] as the molecule, how does the DNA synthesis [1] read?
**A.** Its DNA synthesis is 0 % of controls.

**Q.** What about the Protein synthesis [1] of the same molecule?
**A.** The Protein synthesis was 0 % of controls.

**Q.** And the RNA synthesis [1]?
**A.** The RNA synthesis was 0 % of controls.

**Q.** And the Solubility in water [2]?
**A.** The Solubility in water was “High”.

**Q.** What about the “DNA synthesis, preinc. in MEM” value [3, 9] of the same molecule?
**A.** The value was 24 % of controls.

**Q.** And the “DNA synthesis, preinc. in MEM+BHK” value [3, 9]?
**A.** The value was 35 % of controls.

**Q.** What about the “Protein synthesis, preinc. in MEM” value [3, 9] of the same molecule?
**A.** Its value is 100 % of controls.

**Q.** What about the “Protein synthesis, preinc. in MEM+BHK” value [3, 9] of the same molecule?
**A.** Its value is 100 % of controls.

**Q.** And the “RNA synthesis, preinc. in MEM” value [3, 9]?
**A.** The value was 90 % of controls.

**Q.** What about the “RNA synthesis, preinc. in MEM+BHK” value [3, 9] of the same molecule?
**A.** Its value is 100 % of controls.

**Q.** And the “DNA synthesis, preinc. in MEM” value [3, 10]?
**A.** Its value is 4 % of controls.

**Q.** What about the “DNA synthesis, preinc. in MEM+BHK” value [3, 10] of the same molecule?
**A.** Its value is 16 % of controls.

**Q.** And the “Protein synthesis, preinc. in MEM” value [3, 10]?
**A.** Its value is 68 % of controls.

**Q.** And the “Protein synthesis, preinc. in MEM+BHK” value [3, 10]?
**A.** The value was 100 % of controls.

**Q.** And the “RNA synthesis, preinc. in MEM” value [3, 10]?
**A.** Its value is 42 % of controls.

**Q.** What about the “RNA synthesis, preinc. in MEM+BHK” value [3, 10] of the same molecule?
**A.** Its value is 64 % of controls.

**Q.** And the “DNA synthesis, preinc. in MEM” value [3, 11]?
**A.** Its value is 4 % of controls.

**Q.** What about the “DNA synthesis, preinc. in MEM+BHK” value [3, 11] of the same molecule?
**A.** The value was 7 % of controls.

**Q.** And the “Protein synthesis, preinc. in MEM” value [3, 11]?
**A.** Its value is 52 % of controls.

**Q.** What about the “Protein synthesis, preinc. in MEM+BHK” value [3, 11] of the same molecule?
**A.** Its value is 69 % of controls.

**Q.** What about the “RNA synthesis, preinc. in MEM” value [3, 11] of the same molecule?
**A.** The value was 39 % of controls.

**Q.** What about the “RNA synthesis, preinc. in MEM+BHK” value [3, 11] of the same molecule?
**A.** Its value is 49 % of controls.

**Q.** And the “Mitotic block (% increase of abnormal metaphases 2-4 h after treatment)” value [4]?
**A.** The value was “+++ (+ + + (> 100%))”.

**Q.** And the “Mitotic inhibition, early (% reduction of normal prophases at the end of treatment)” value [4]?
**A.** The value was “+++ (+ + + (> 70%))”.

**Q.** And the “Mitotic inhibition, late (% reduction of normal prophases 24 h after treatment)” value [4]?
**A.** Its value is “+++ (+ + + (> 70%))”.

**Q.** What about the Caryological alterations ([4]; grades not defined) of the same molecule?
**A.** Its Caryological alterations is “~+”.

**Q.** What about the “Mean number of chromosome aberrations relative to control” value [5] of the same molecule?
**A.** The value was 2-3 times the control values.

**Q.** And the Cell growth [6]?
**A.** Its Cell growth is 0 % of controls.

**Q.** What about the “Length of treatment giving 50% inhibition of RNA synthesis” value ([7]; K2Cr2O7 10 µg/ml in HBSS) of the same molecule?
**A.** Its value is 1 to 2 h.

**Q.** And the “Length of treatment giving 50% inhibition of protein synthesis” value ([7]; K2Cr2O7 10 µg/ml in HBSS)?
**A.** Its value is 3 to 5 h.

**Q.** And the “Length of treatment giving > 90% inhibition of DNA synthesis” value ([7]; K2Cr2O7 10 µg/ml in HBSS)?
**A.** Its value is 2 to 3 h.

**Q.** What about the “Length of treatment giving > 90% inhibition of RNA synthesis” value ([7]; K2Cr2O7 10 µg/ml in HBSS) of the same molecule?
**A.** Its value is 6 to 7 h.

**Q.** What about the “Length of treatment giving > 90% inhibition of protein synthesis” value ([7]; K2Cr2O7 10 µg/ml in HBSS) of the same molecule?
**A.** Its value is 8 to 10 h.

**Q.** What about the “Length of treatment giving 50% inhibition of DNA synthesis” value ([7]; K2Cr2O7 10 µg/ml in MEM) of the same molecule?
**A.** Its value is 0.5 to 1.0 h.

**Q.** What about the “Length of treatment giving 50% inhibition of RNA synthesis” value ([7]; K2Cr2O7 10 µg/ml in MEM) of the same molecule?
**A.** Its value is 2 to 4 h.

**Q.** What about the “Length of treatment giving 50% inhibition of protein synthesis” value ([7]; K2Cr2O7 10 µg/ml in MEM) of the same molecule?
**A.** The value was 5 to 9 h.

**Q.** What about the “Length of treatment giving > 90% inhibition of DNA synthesis” value ([7]; K2Cr2O7 10 µg/ml in MEM) of the same molecule?
**A.** The value was 2 to 3 h.

**Q.** What about the “Length of treatment giving > 90% inhibition of RNA synthesis” value ([7]; K2Cr2O7 10 µg/ml in MEM) of the same molecule?
**A.** The value was over 10 h.

**Q.** What about the “Length of treatment giving > 90% inhibition of protein synthesis” value ([7]; K2Cr2O7 10 µg/ml in MEM) of the same molecule?
**A.** Its value is over 10 h.

**Q.** What about the “Length of treatment giving 50% inhibition of DNA synthesis” value ([7]; K2Cr2O7 100 µg/ml in MEM) of the same molecule?
**A.** Its value is 0 to 25 h.

**Q.** And the “Length of treatment giving 50% inhibition of protein synthesis” value ([7]; K2Cr2O7 100 µg/ml in MEM)?
**A.** The value was 1 to 3 h.

**Q.** And the “Length of treatment giving > 90% inhibition of DNA synthesis” value ([7]; K2Cr2O7 100 µg/ml in MEM)?
**A.** The value was 0 to 75 h.

**Q.** What about the “Length of treatment giving > 90% inhibition of RNA synthesis” value ([7]; K2Cr2O7 100 µg/ml in MEM) of the same molecule?
**A.** The value was 5 to 7 h.

**Q.** And the “Length of treatment giving > 90% inhibition of protein synthesis” value ([7]; K2Cr2O7 100 µg/ml in MEM)?
**A.** The value was 6 to 10 h.

**Q.** What about the Cell growth [8] of the same molecule?
**A.** Its Cell growth is 83 % control.
